In US20240252418A1, “Additives (Adjuvants, Anti Freezing Agents, Antimicrobial and Antioxidants) in Natural Deep Eutectic Solvents and Mixtures” (Bioeutectics Corporation, priority 2023, published 2024):

Tests used:
[1] = Wetted area of droplets on a paper sheet (pure systems); format: physicochemical; conditions: 5 μL drop
Description: (§1) A general procedure was developed to evaluate the wetted area of droplets. The test system was prepared with 1% of the eutectic products in water, and a miscible dye, which allowed the visualization of the wetted area droplets. To compare the ability of the pure systems to a known adjuvant, TX (Triton X-100), a nonionic surfactant that has a hydrophilic polyethylene oxide chain with, on average, 9.5 ethylene oxide units) was used and was prepared under the same conditions and compared with a water/dye blank.

[2] = tested on: waxy leaves of Epipremnum aureum; assay: Wetted area of droplets on waxy leaves; format: physicochemical
Description: as §1
In a subsequent experiment, the wetted area of droplets was tested on waxy leaves of Epipremnum aureum. The quantitative results of those tests appear in Table 2.

[3] = Evaporation time measurements; format: physicochemical; conditions: 5 μL drop of 1% solution in H2O, glass slide, room temperature
Description: Evaporation time was analyzed after applying 5 μL (one drop) of a 1% solution in water, on a glass slide at room temperature.

[4] = Wetted area on a paper sheet (mixture systems with TX); format: physicochemical
Description: as §1
With the results from the pure systems on paper and a waxy leaf shown in tables 1 and 2, a subsequent test was performed wherein mixtures of the products of the present invention with TX were compared on a paper sheet. Mixtures comprising TX and the products under study were evaluated at 0.9, 0.75, 0.50, 0.25, and 0.10% (1% total concentration). […] Compared to TX/water, the mixture with TX/BOA (50/50%) increased the wetted area by around 190%, systems with TX/BOA and TX/BOA (75/25%) increased the wetted area by around 180%, while TX/BOA (25/75%) increased the wetted area by around 150% (see Table 3).

[5] = Solubility test for common agro actives; conditions: 14% w/w analyte/solvent, 30° C., vortex and ultrasound
Description: Solubility test (for common agro actives) was carried out at the working concentration of 14% w/w analyte/solvent, initially in traditional solvents and then in our selected solvents, at 30° C. and assisted by vortex and ultrasound.

[6] = Component A TX 0.1% + Component B 0.9%
[7] = Component A TX 0.25% + Component B 0.75%
[8] = Component A TX 0.5% + Component B 0.5%
[9] = Component A TX 0.75% + Component B 0.25%
[10] = Component A TX 0.9% + Component B 0.1%

Molecule	Relative size (%) with reference to H2O ([1]; 1% in water) [%]	Relative size (%) with reference to TX ([1]; 1% in water) [%]	Area ([1]; 1% in water with dye) [mm^2]	Relative size (%) with reference to H2O [2] [%]	Relative size (%) with reference to TX [2] [%]	Evaporation time [3] [min]	The relative evaporation time with reference to TX (min) [3]	Area [4, 6] [mm^2]	Relative size (%) with reference to TX/H2O [4, 6] [%]	Area [4, 7] [mm^2]	Relative size (%) with reference to TX/H2O [4, 7] [%]	Area [4, 8] [mm^2]	Relative size (%) with reference to TX/H2O [4, 8] [%]	Area [4, 9] [mm^2]	Relative size (%) with reference to TX/H2O [4, 9] [%]	Area [4, 10] [mm^2]	Relative size (%) with reference to TX/H2O [4, 10] [%]	Solubility in the selected solvents [5]
Triton X-100 [TX]	424.82	100.00	23.98	333.18	100.00	19.73	1.00	18.05	100.00	18.99	100.00	17.78	100.00	17.84	100.00	15.81	100.00	–
CCNc1nc(Cl)nc(NC(C)(C)C)n1 [Terbutylazine]	–	–	–	–	–	–	–	–	–	–	–	–	–	–	–	–	–	Soluble in 9 of our tested solvents
